Literature values as cited in patent US20130130306A1, “ZN (II) BASED COLORIMETRIC SENSOR AND PROCESS FOR THE PREPARATION THEREOF” (COUNCIL OF SCIENTIFIC & INDUSTRIAL RESEARCH, priority 2010, published 2013).

System: living microbes (eukaryotes and prokaryotes)
Conditions: drug carrier, general knowledge; cited from earlier work

OC[C@H]1O[C@@H]2O[C@H]3[C@H](O)[C@@H](O)[C@@H](O[C@H]4[C@H](O)[C@@H](O)[C@@H](O[C@H]5[C@H](O)[C@@H](O)[C@@H](O[C@H]6[C@H](O)[C@@H](O)[C@@H](O[C@H]7[C@H](O)[C@@H](O)[C@@H](O[C@H]1[C@H](O)[C@H]2O)O[C@@H]7CO)O[C@@H]6CO)O[C@@H]5CO)O[C@@H]4CO)O[C@@H]3CO [α-CD, α-cyclodextrin]
toxicity to the living cell (known): completely non-toxic
